Paper PMC10800100, “DoAP2/ERF89 activated the terpene synthase gene DoPAES in Dendrobium officinale and participated in the synthesis of β-patchoulene” (PeerJ, 2024)

Biological target: T1, DoPAES (Dendrobium catenatum, UniProt A0A975TQG2)
T1 sequence (A0A975TQG2 1-550): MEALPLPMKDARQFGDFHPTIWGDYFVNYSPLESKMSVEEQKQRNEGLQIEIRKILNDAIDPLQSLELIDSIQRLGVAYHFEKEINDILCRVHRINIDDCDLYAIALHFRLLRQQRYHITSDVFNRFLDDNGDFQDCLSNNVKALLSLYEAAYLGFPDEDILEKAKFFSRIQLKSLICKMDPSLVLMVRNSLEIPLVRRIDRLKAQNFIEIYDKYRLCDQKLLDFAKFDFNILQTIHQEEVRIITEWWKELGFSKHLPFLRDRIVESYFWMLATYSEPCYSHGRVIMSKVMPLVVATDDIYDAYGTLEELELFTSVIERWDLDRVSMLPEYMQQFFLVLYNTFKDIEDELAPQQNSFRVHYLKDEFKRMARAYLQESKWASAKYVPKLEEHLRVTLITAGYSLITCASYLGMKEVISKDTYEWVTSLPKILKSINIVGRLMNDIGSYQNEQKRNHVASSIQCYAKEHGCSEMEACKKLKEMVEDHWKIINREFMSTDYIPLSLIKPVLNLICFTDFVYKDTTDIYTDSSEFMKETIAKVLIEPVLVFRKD
Experiment: HS-SPME-GC-MS of products formed by crude recombinant protein
Format: biochemical
Settings: 50 mmol/L Tris pH 7.5, 10 mmol/L MgCl2, 10 μmol/L MnCl2, 30 °C, 30 min

CC(C)=CCC/C(C)=C/CC/C(C)=C/COP(=O)(O)OP(=O)(O)O [FPP]
HS-SPME-GC-MS of products formed by crude recombinant protein: The products were then detected by GC-MS after adding substrate FPP.
